“Also recorded” adds a separate entry of the source.
Assays:
Format in all cases: biochemical
human citrated plasma [1] = experiment: Prothrombin time (PT) assay in human citrated plasma; conditions: 2 uM, 2 h, versus untreated control
Description: (§1) Plasma was prepared by centrifugation for 10 min at 2000×g. In vitro activity assays were performed on ACLTOP analyzer manufactured by Instrumentation Laboratory, which is a type of coagulation analyzer commonly used in clinical laboratories to measure clotting times and assess coagulation parameters. The ACLTOP analyzer is designed to perform a wide range of coagulation tests, including Factor II activity, prothrombin time (PT), activated partial thromboplastin time (APTT), fibrinogen, and other related assays. ACLTOP analyzer uses HemosIL reagents developed by Instrumentation Laboratory company (Bedford, MA, USA) to perform coagulation tests.
(§2) PT time was measured using RecombiPlasTin 2G for quantitative determination in human citrated plasma of PT and Fibrinogen on an ACLTOP coagulation analyzer manufactured by Instrumentation Laboratory (Bedford, MA, USA). To assess the activity of the aptamers in a dose-dependent manner in whole blood, human blood samples were collected in citrate-treated tubes. The blood samples were then incubated at room temperature for 2 h in the absence or presence of varying concentrations of the thrombin aptamers. To measure the Prothrombin Time (PT) on the ACLTOP coagulation analyzer, plasma was obtained by centrifuging the samples at 1500×g for 10 min at 4° C. For the dose dependence study, concentrations of 1 uM, 2 uM, 3 uM, and 4 uM of AYA1809002 and AYA1809004 were utilized.
(§3) Modified aptamers chemically crosslinked with TAG, PEG, and cholesterol entities at the 3′ end, were purchased from IDT (Integrated DNA Technologies, Coralville, IA, USA). The impact of modified AYA1809002 and AYA1809004 aptamers on Factor II activity, PT, and APTT was evaluated using the same protocol as was used for the unmodified aptamers. Additionally, the potential for reversal was investigated using the respective reverse complement for each aptamer.

human citrated plasma [2] = experiment: Activated partial thromboplastin time (APTT) assay in human citrated plasma; conditions: 2 uM, 2 h, versus untreated control
Description: as §1, with “137. Sterile human blood in sodium citrate was purchased from the Rockland Immuno- chemicals, Inc (cat #R214-0050, Pottstown, PA 19464, USA). Plasma” for “Plasma”
140. […] APTT time was measured using the synthetic phospholipid reagent SynthASIil for quantitative determination in human citrated plasma on an ACLTOP coagulation analyzer manufactured by Instrumentation Laboratory (Bed- ford, MA, USA).
as §3, with “146. Modified” for “Modified”

whole human blood = experiment: Dose-dependent prothrombin time (PT) in whole blood; conditions: 1, 2, 3, 4 uM; 2 h room temperature; citrated whole human blood
Description: as §2, with “139. […] PT time” for “PT time”
156. To facilitate future applications, gaining a comprehensive understanding of the activity of aptamers in whole blood is of paramount importance. To assess their effectiveness, we tested the selected aptamers at various concentrations in whole blood to evaluate their impact on Factor II activity and PT time. Human blood samples were collected in citrate- treated tubes. The blood samples were then incubated at room temperature for 2 h in the absence or presence of varying concentrations of thrombin aptamers. […]

thrombin = thrombin (Homo sapiens, UniProt P00734); experiment: Direct thrombin activity inhibition (Thrombin Inhibitor Screening Assay Kit, fluorometric); set-up: a thrombin enzyme mixture was added to each sample and control well; purchased Abcam ab197007; conditions: different aptamer concentrations; AMC substrate, 360/460 nm, 45 min, 37° C.
Description: 141. A Thrombin Inhibitor Screening Assay Kit (fluorometric) (Abcam, cat #ab197007, Waltham, Boston, MA, USA) was employed to test the direct binding ability and inhibitory potential of the AYA1809002 and AYA1809004 aptamers against thrombin. The procedure was carried out following the standard protocol provided with the kit. […] Subsequently, a thrombin enzyme mixture was added to each sample and control well. Following an incubation period of 20 min, a substrate mixture was introduced into each sample and control well. Fluorescence measurements were taken using a SYNERGY/HTX multi-mode reader (BioTek, Agilent Technologies, Santa Clara, CA 95051, USA) with the excitation/emission wavelengths set at 360/460 nm. The measurements were recorded for 45 min at a temperature of 37° C. while ensuring protection from light.
155. The direct binding and inhibitory capabilities of AYA1809002 and AYA1809004 ap- tamers on thrombin were evaluated using a Thrombin Inhibitor Screening Assay Kit (fluorometric). The procedure was carried out following the standard protocol provided with the kit. […] The fluorescence intensity is then measured over time to assess the thrombin inhibitory potential of the sample. […] The released AMC is detectable through fluorescence measurement at an excitation/emission wavelength of 360/460 nm.

Substance | increase in PT time (human citrated plasma [1]) | increase in APTT time (human citrated plasma [2]) | effect on prothrombin time (PT) in whole blood (whole human blood) | inhibition of thrombin activity (thrombin)
AYA1809004: ssDNA thrombin aptamer TCGTCAAGGTACGGTTGGGGGGGTGGGTGTTGACGTTGAA (DNA, backbone not given here) | three-fold increases | approximate four-fold increase | corresponding increase in prothrombin time | dose-dependent inhibition of thrombin activity
AYA1809002: ssDNA thrombin aptamer GCGGTGTTGCTGGGGTTGGGAGGTTGGAGGAAGCAATCGC | three-fold increases | approximate four-fold increase | corresponding increase in prothrombin time; also recorded: corresponding increase in PT | dose-dependent inhibition of thrombin activity
